Test results: patent publication US4558054A, “Spasmolytic endo-8,8-dialkyl-8-azoniabicyclo (3.2.1) octane-6,7-exo-epoxy-3-alkyl-carboxylate salts” (priority 1983, dated 1985)
Read-outs that look alike come from different tables or passages of the source.

Legend:
[1] = Acute toxicity in the mouse; format: in vivo; conditions: mouse, in vivo, ip; male mice (Swiss stock); Litchfield and Wilcoxon
Experimental: (§1) 5. Acute toxicity in the mouse
(§2) The acute toxicity of the compounds according to the invention was evaluated in comparison with that of Buscopan, atropine methyl bromide and syntropium bromide, after intraperitoneal administration in male mice (Swiss stock).
(§3) The LD50, the values of which together with the relative confidence limits (P=0.05) are given in Table 6, was calculated by the Litchfield and Wilcoxon method [Litchfield J. T., Wilcoxon F. A., J. Pharmac. Exp. Theor., 96, 99 (1949)].
(§4) Acute toxicity in the mouse after intraperitoneal administration

[2] = tested on: mouse pupil (basal pupillary diameter); assay: Mydriatic activity in the mouse; format: in vivo; conditions: for mydriatic activity lower than atropine methyl bromide: vs atropine methyl bromide
Experimental: 4. Mydriatic activity in the mouse
The dose able to increase the basal pupillary diameter by 150% (ED150)15 minutes, 30 minutes, 60 minutes and 120 minutes after intraperitoneal administration of the compounds into the mouse was calculated.
Mydriatic activity evaluated in the mouse 15 minutes, 30 minutes, 60
minutes after intraperitoneal administration

[3] = Intestinal transit in the mouse (inhibition of progression of opaque meal); conditions: in vivo, ip
Experimental: (§5) 3. Intestinal transit in the mouse
(§6) 3. intestinal transit in the mouse
(§7) An evaluation was made on the capacity of the studied compounds to inhibit the progression of an opaque meal 15 minutes after their intraperitoneal administration into the mouse. This test is indicative of undesirable side effects.
(§8) The method followed was the classical method of Janssen and Jageneau [Janssen P. A., Jageneau A. H., J. Pharm. Pharmacol. 9, 381 (1957)], by which the doses which inhibit the progression of the opaque meal through the small intestine by 50% (ED50) relative to the controls were calculated.
(§9) Activity affecting intestinal transit in the mouse after intra-
(§10) peritonal administration 15 minutes before taking the opaque

[4] = tested on: isolated rat ileum (antagonist barium chloride); assay: Isolated rat ileum, spasmolytic (direct myolytic) activity vs barium chloride, pA2; format: cell-based; set-up: key to pA2, spasmolytic effect: pA2 = −log molar antagonist conc. halving BaCl2-induced contraction; conditions: for spasmolytic activity in words, rat ileum: compared with Buscopan; for pA2, spasmolytic effect: isolated rat ileum, barium chloride, 6 experiments, confidence limits P = 0.05; for Activity ratio: with respect to Buscopan (=1), antilogarithm of pA2 difference; for direct myolytic activity relative to Buscopan: Buscopan activity = 1
From the text: 1. Isolated rat ileum (antagonist barium chloride)
The spasmolytic activity of the compounds reported in Table 1 were studied firstly in a comparison with Buscopan (scopolamine butyl bromide), using the isolated rat ileum, by the classical Magnus method [Magnus and coll., Pflugers Gas. Physiol., 102, 123 (1904)], of which the smooth muscle was subjected to direct stimulation by barium chloride. The evaluation of this activity was made by the method involving the pA2 determination [Schild H. G., Brit. J. Pharmacol., 2, 189, (1947)]. The pA2 value is the negative logarithm of the molar concentration of the antagonist able to reduce the contraction induced by the antagonist (barium chloride) by 50%.
Spasmolytic effect evaluated on the isolated rat ileum with barium
chloride as antagonist, and expressed as the pA2 value.

[5] = molecular target: T1, isolated guinea pig ileum (antagonist acetyl choline) (Cavia porcellus, UniProt H0W1Z3); assay: Isolated guinea pig ileum, antimuscarinic activity vs acetyl choline, pA2; format: cell-based; conditions: for antimuscarinic spasmolytic activity in words, compared with Buscopan / spasmolytic activity relative to Buscopan: vs Buscopan; for antimuscarinic activity in words, compared with atropine: vs atropine
T1 construct: antimuscarinic activity using the isolated guinea pig ileum; from tissue; host or cells: isolated guinea pig ileum
T1 sequence (H0W1Z3 1-590): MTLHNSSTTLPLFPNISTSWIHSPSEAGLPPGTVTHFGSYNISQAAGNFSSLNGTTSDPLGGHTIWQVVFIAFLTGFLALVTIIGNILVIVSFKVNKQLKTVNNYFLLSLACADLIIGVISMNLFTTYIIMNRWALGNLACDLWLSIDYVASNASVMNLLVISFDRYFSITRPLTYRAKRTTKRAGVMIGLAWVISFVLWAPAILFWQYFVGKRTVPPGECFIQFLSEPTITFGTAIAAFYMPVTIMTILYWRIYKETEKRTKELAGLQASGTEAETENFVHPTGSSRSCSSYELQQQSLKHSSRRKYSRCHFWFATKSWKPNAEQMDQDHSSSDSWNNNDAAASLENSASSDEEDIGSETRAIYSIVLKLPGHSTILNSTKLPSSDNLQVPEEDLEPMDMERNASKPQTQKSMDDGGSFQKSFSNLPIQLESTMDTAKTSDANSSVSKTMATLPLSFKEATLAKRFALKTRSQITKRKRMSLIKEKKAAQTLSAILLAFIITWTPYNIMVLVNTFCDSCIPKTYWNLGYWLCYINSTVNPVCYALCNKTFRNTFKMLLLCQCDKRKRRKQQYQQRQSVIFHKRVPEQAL
Experimental: (§11) 2. Isolated guinea pig ileum (antagonist acetyl choline)
(§12) 2. Isolated guinea pig ileum
(§13) All the compounds were also tested for antimuscarinic activity using the isolated guinea pig ileum, with acetyl choline as antagonist.
(§14) The potency of action was evaluated by calculating the pA2 values, as in the case of the direct myolytic activity evaluated on the isolated rat ileum.
(§15) Antimuscarinic activity evaluated on the isolated guinea pig ileum
(§16) with acetyl choline as antagonist, expressed as pA2 value.

[6] = tested on: T2, isolated guinea pig ileum (antagonist acetyl choline) (Cavia porcellus); assay: as above; format: cell-based; conditions: with respect to Buscopan (=1)
T2 construct: antimuscarinic activity using the isolated guinea pig ileum; from tissue; host or cells: isolated guinea pig ileum
T2 sequence (H0W1Z3 1-590): as above
Experimental: as §11, §12, §13, §14, §15, §16

[7] = Overall pharmacological screening (spasmolytic activity and side effects); conditions: intestinal transit and mydriatic effect in the mouse
Experimental: The study was conducted using the following in vitro and in vivo tests, each time in comparison with Buscopan, atropine methyl bromide and syntropium bromide: […]

mouse = assay: Acute toxicity in the mouse; format: in vivo; conditions: compared with reference standards / Buscopan
Experimental: as §1, §2, §3, §4

[8] = tested on: intestinal transit in the mouse; assay: Intestinal transit in the mouse (inhibition of progression of opaque meal); conditions: in vivo, ip
Experimental: as §5, §6, §7, §8, §9, §10

[9] = mouse, i.p., 150% increase of basal pupillary diameter
[10] = isolated guinea pig ileum, acetyl choline, 6 experiments, confidence limits P = 0.05, read-out: pA2, antimuscarinic activity (converted)

Structure (SMILES) | LD50 [1] [mg/kg] | ED150 after 15 min [2, 9] [mg/kg/i.p.] | ED150 after 30 min [2, 9] [mg/kg/i.p.] | ED150 after 60 min [2, 9] [mg/kg/i.p.] | ED50 [3] [mg/kg] | spasmolytic activity in words, rat ileum [4] | pA2, spasmolytic effect [4] | Activity ratio [4] | Kb [5] [nM] | Activity ratio [6] | acute toxicity in words (mouse) | other results
C[N+]1(C)[C@@H]2CC[C@H]1C[C@@H](OC(=O)C(CO)c1ccccc1)C2 (stereo partly drawn) [Atropine MeBr, atropine methyl bromide] | 75 | 0.030 | 0.030 | 0.052 | 52.1 |  |  |  |  |  |  | 
CCCC(CCC)C(=O)O[C@@H]1C[C@@H]2[C@H]3O[C@H]3[C@H](C1)[N@@+]2(C)CC [No. 12, endo-8-methyl-8-anti-ethyl-8-azoniabicyclo[3.2.1]octane-6,7-exo-epoxy-3-(2-propyl)pentanoate bromide] | 72 |  |  |  | 42.2 | activity similar to that of Buscopan | 6.66 | 0.7 | 93.3 | 0.50 |  | activity lower than Buscopan ([4]; vs Buscopan): 1.5 times lower
CCCC(CCC)C(=O)O[C@@H]1C[C@@H]2[C@H]3O[C@H]3[C@H](C1)[N@+]2(C)C(C)C [No. 8, endo-8-methyl-8-syn-(1-methyl)ethyl-8-azoniabicyclo[3.2.1]octane-6,7-exo-epoxy-3-(2-propyl)pentanoate bromide] | 78 |  |  |  | ~69 | good spasmolytic activity | 5.72 | 0.08 | 302 | 0.15 |  | 
CCCC(CCC)C(=O)O[C@@H]1C[C@@H]2[C@H]3O[C@H]3[C@H](C1)[N+]2(C)C [No. 2, endo-8,8-dimethyl-8-azoniabicyclo[3.2.1]octane-6,7-exo-epoxy-3-(2-propyl)pentanoate bromide] | 93.5 | 0.21 | 0.42 | 1.46 | 79 | decidedly greater than those of Buscopan | 8.06 | 16.6 | 11 | 4.27 | decidedly lower toxicity | direct myolytic activity relative to Buscopan [4]: 16.6 times; antimuscarinic spasmolytic activity in words, compared with Buscopan [5]: decidedly greater than those of Buscopan; spasmolytic activity relative to Buscopan [5]: 4.27 times; antimuscarinic activity in words, compared with atropine [5]: approaches that of atropine itself; antimuscarinic activity in words, compared with syntropium bromide ([5]; vs syntropium bromide): much higher than; side effects in words [7]: lesser level of side effects; mydriatic activity lower than atropine methyl bromide [2]: 10 times less; reduction of intestinal transit in words [8]: reduce intestinal transit to a decidedly lesser extent
CCCC(CCC)C(=O)OC1CC2CCC(C1)[N+]2(C)C(C)C (stereo not drawn) [Syntropium Br, syntropium bromide, reference compound] | 65 |  |  |  |  |  |  |  |  | 2.57 |  | Kb [5, 10]: 18.2 nM; ED50 ([3]; 15 minutes before opaque meal, indicative of side effects, read-out: ED50, inhibition of progression of opaque meal by 50%): 29.8 mg/kg
CCCC[N@+]1(C)[C@@H]2C[C@@H](OC(=O)C(CCC)CCC)C[C@H]1[C@@H]1O[C@@H]12 [No. 10, endo-8-methyl-8-syn-butyl-8-azoniabicyclo[3.2.1]octane-6,7-exo-epoxy-3-(2-propyl)pentanoate bromide] | 105 |  |  |  | ~85 |  |  |  |  |  | decidedly lower toxicity | 
CCCC[N+]1(C)[C@@H]2C[C@@H](OC(=O)[C@H](CO)c3ccccc3)C[C@H]1[C@@H]1O[C@@H]12 (stereo partly drawn) [Buscopan, scopolamine butyl bromide] | 65 | 3.24 | 3.29 | 3.66 | 51.7 |  | 6.84 |  |  |  |  | Kb [5, 10]: 46.8 nM; mydriatic activity over time, in words ([2]; mouse, i.p.): still possesses activity 120 minutes after its administration; ED150 after 120 min ([2]; mouse, i.p., 150% increase of basal pupillary diameter, 120 min): 5.32 mg/kg/i.p.
CCCC(CCC)C(=O)O[C@@H]1C[C@@H]2[C@H]3O[C@H]3[C@H](C1)[N@+]2(C)CC [No. 5, endo-8-methyl-8-syn-ethyl-8-azoniabicyclo[3.2.1]octane-6,7-exo-epoxy-3-(2-propyl)pentanoate bromide] | 74 | 2.17 | 6.16 |  | 73.2 | decidedly greater than those of Buscopan | 7.73 | 7.8 | 19.1 | 2.25 | lower toxicity | direct myolytic activity relative to Buscopan [4]: 7.8 times; antimuscarinic spasmolytic activity in words, compared with Buscopan [5]: decidedly greater than those of Buscopan; spasmolytic activity relative to Buscopan [5]: 2.45 times; antimuscarinic activity in words, compared with atropine [5]: approaches that of atropine itself; side effects in words [7]: lesser level of side effects; mydriatic activity lower than atropine methyl bromide [2]: > 100 times less; reduction of intestinal transit in words [8]: reduce intestinal transit to a decidedly lesser extent
